From patent US7838554B2, “Dihydroxyl compounds and compositions for cholesterol management and related uses” (Esperion Therapeutics, Inc., priority 2003, dated 2010)

Key:
obese female Zucker rats = test: Oral daily treatment of chow fed obese female Zucker rats for fourteen days: serum lipids, glycemic indicators, body weight; type: in vivo, rat; conditions: 14 days, n=4
Experimental: In a number of different experiments, illustrative compounds of the invention are administered daily at a dose of up to 100 mg/kg to chow fed obese female Zucker rats for fourteen days in the morning by oral gavage in 1.5% carboxymethylcellulose/0.2% Tween 20 or 20% ethanol/80% polyethylene glycol (dosing vehicles). Animals are weighed daily. Animals are allowed free access to rodent chow and water throughout the study except on days of blood sampling where food is restricted for six hours prior to blood sampling. Blood glucose is determined after the 6 hour fast in the afternoon without anesthesia from a tail vein. Serum is also prepared from pretreatment blood samples subsequently obtained from the orbital venous plexus (with O2/CO2 anesthesia) and following the fourteenth dose at sacrifice from the heart following O2/CO2 anesthesia. Serums are assayed for lipoprotein cholesterol profiles, triglycerides, total cholesterol, Non-HDL cholesterol, HDL cholesterol, the ratio of HDL cholesterol to that of Non-HDL cholesterol, insulin, non-esterified fatty acids, and beta-hydroxy butyric acid. The percent body weight gain and the ratio of liver to body weight is also determined. These are shown as absolute values or as a percent change of the pretreatment values in Table 1

primary rat hepatocytes = test: Inhibition of lipid synthesis ([1-14C]-acetate incorporation) in primary cultures of rat hepatocytes; type: cell-based; conditions: Hepatocyte, 4 hours, 0-300 μM
Experimental: Compounds were tested for inhibition of lipid synthesis in primary cultures of rat hepatocytes. Male Sprague-Dawley rats were anesthetized with intraperitoneal injection of sodium pentobarbital (80 mg/kg). Rat hepatocytes were isolated essentially as described by the method of Seglen (Seglen, P. O. Hepatocyte suspensions and cultures as tools in experimental carcinogenesis. J. Toxicol. Environ. Health 1979, 5, 551-560). Hepatocytes were suspended in Dulbecco's Modified Eagles Medium containing 25 mM D-glucose, 14 mM HEPES, 5 mM L-glutamine, 5 mM leucine, 5 mM alanine, 10 mM lactate, 1 mM pyruvate, 0.2% bovine serum albumin, 17.4 mM non-essential amino acids, 20% fetal bovine serum, 100 nM insulin and 20 μg/mL gentamycin) and plated at a density of 1.5×10^5 cells/cm^2 on collagen-coated 96-well plates. Four hours after plating, media was replaced with the same media without serum. […] Lipid synthesis incubation conditions were initially assessed to ensure the linearity of [1-^14C])-acetate incorporation into hepatocyte lipids for up to 4 hours. Hepatocyte lipid synthesis inhibitory activity was assessed during incubations in the presence of 0.25 μCi [1-^14C]-acetate/well (final radiospecific activity in assay is 1 Ci/mol) and 0, 1, 3, 10, 30, 100 or 300 μM of compounds for 4 hours. […] Lipid radioactivity was assessed by scintillation spectroscopy in a Packard TopCount NXT.

[1] = Solubility noted on work-up of the tetraol; type: physicochemical
Excerpt: THP-protected bromo alcohol XA was converted into the corresponding Grignard reagent XB following the standard procedure (Vogel, A. I. “Vogel's Textbook of Practical Organic Chemistry”, 5th Edition, Longman, England, 1989, p. 535). Further coupling of this Grignard reagent in situ with succinic dialdehyde Z prepared by acid-catalyzed ring-opening of commercially available 2,5-dimethoxytetrahydrofuran Y (Fakstorp, J.; Raleigh, D.; Schniepp, L. E. J. Am. Chem. Soc., 1950, 72, 869, House, H. O.; Cronin, T. H. J. Org. Chem., 1965, 30, 1061) at 0 to 5° C. occurs smoothly to give the bis(THP-protected) tetraol XC in high yield (92% after flash column chromatography purification). Acidic hydrolysis of XC in methanol/aqueous H2SO4 was completed in two hours to afford tetraol XI). The product is insoluble in dichloromethane and diethyl ether and could be purified by washing with one of these solvents.

Row | Structure (SMILES) | % wt. gain (obese female Zucker rats; 100 mg/kg/day oral gavage) | Glucose, Percent of Pre-treatment (obese female Zucker rats; blood glucose after 6 hour fast, 100 mg/kg/day oral) | BHA, Percent of Pre-treatment (obese female Zucker rats; serum beta-hydroxy butyric acid, 100 mg/kg/day oral) | NEFA, Percent of Pre-treatment (obese female Zucker rats; serum non-esterified fatty acids, 100 mg/kg/day oral) | HDL-C/non-HDL-C (obese female Zucker rats; serum ratio, 100 mg/kg/day oral) | TC, Percent of Pre-treatment (obese female Zucker rats; serum total cholesterol, 100 mg/kg/day oral) | TG, Percent of Pre-treatment (obese female Zucker rats; serum triglycerides, 100 mg/kg/day oral) | HDL-C, Percent of Pre-treatment (obese female Zucker rats; serum, 100 mg/kg/day oral) | Insulin, Percent of Pre-treatment (obese female Zucker rats; serum, 100 mg/kg/day oral) | Non-HDL-C, Percent of Pre-treatment (obese female Zucker rats; serum, 100 mg/kg/day oral) | IC50 (primary rat hepatocytes) | melting point | Solubility in water [1]
1 | CC(C)(CO)CCCC(O)CCC(O)CCCC(C)(C)CO (centres unmarked) [Compound A] | 13% | 11% | 73% | 143% | 1 | 4% | 43% | −19% | 70% | 30% | 1100 nM |  | 
2 | CC(C)(CO)CCCC(O)CCCC(O)CCCC(C)(C)CO (centres unmarked) [Compound 6.2.2, 2,2,14,14-Tetramethylpentadecane-1,6,10,15-tetraol] |  |  |  |  |  |  |  |  |  |  |  | 85 to 86 °C | 
3 | CC(C)(CO)CCCC(O)CCC(O)CCCC(C)(C)CO (centres unmarked) [XI), 2,2,13,13-Tetramethyltetradecan-1,6,9,14-tetraol] |  |  |  |  |  |  |  |  |  |  |  | 96 to 97 °C | practically insoluble
